Source: patent US11407736B2 (priority 2019, dated 2022)
Like-named read-outs stand apart in the source and are kept apart here.

How the values were obtained:
RIPK1 = RIPK1 (Homo sapiens (Human), UniProt Q13546); assay: RIPK1 ADP-Glo biochemical kinase assay; details: read-out: RIPK1 ADP-Glo Kinase (IC50)
Procedure: The final reaction volume was 5.0ul.
Adding 5 μl of ADP-Glo™ terminated the reaction.

L929 cells = assay: L929 cell necroptosis assay (TNFa + zVAD, CellTiter-Glo); type: cell-based, murine; details: TNFa + zVAD, read-out: L929-CTG-recovery, L929, TNFa + zVAD (IC50)
Method in brief: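 Necroptosis was read as CellTiter-Glo luminescence 18 hours after TNFa stimulation at 37° C, 5% CO2. Prior to that, L929 cells (10K/well, plated 18 h) received fresh medium with 40 uM zVAD-fmk plus 4-fold serially diluted compound.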

U937 cells = assay: U937 cell necroptosis assay (TNFa + zVAD, CellTiter-Glo); type: cell-based, human; details: TNFa + zVAD, read-out: U937 Zvad TNF CTG Recovery, U937, TNFa + zVAD (IC50)
Method in brief: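 Necroptosis was induced with TNFa at 2 ng/mL final for 18 h at 37 °C, following 1 h compound pre-incubation in the presence of zVAD-fmk (60 uM for U937 plating medium, 40 uM for L929 medium). Luminescent CellTiter-Glo signal gave relative cell survival.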

[1] = Homo sapiens, U-937, U937 cells

Chain of RIPK1 (Q13546 whole entry, species assumed): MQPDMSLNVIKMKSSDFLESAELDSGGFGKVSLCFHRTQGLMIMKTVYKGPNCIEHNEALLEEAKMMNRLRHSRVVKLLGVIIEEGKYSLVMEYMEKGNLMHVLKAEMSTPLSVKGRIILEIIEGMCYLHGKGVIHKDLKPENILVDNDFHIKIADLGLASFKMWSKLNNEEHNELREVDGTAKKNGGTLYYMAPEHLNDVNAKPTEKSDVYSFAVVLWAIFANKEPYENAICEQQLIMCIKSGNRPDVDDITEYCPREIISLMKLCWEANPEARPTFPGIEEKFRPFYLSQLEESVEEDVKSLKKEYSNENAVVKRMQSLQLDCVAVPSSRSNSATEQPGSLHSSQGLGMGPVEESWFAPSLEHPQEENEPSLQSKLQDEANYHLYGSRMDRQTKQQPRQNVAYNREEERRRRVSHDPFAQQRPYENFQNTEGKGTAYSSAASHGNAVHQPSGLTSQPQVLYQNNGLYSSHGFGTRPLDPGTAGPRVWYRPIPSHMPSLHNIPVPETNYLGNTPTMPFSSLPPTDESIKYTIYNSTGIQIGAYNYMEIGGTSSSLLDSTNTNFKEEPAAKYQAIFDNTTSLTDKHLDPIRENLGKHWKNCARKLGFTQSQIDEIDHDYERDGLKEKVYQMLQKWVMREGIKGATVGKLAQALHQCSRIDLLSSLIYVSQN

Compound | IC50 (RIPK1) [nM] | IC50 (L929 cells; L929 cells) [nM] | IC50 (U937 cells; U937 cells) [nM] | IC50 (L929 cells; Mus musculus, L929, L929 cells) [nM] | IC50 (U937 cells; [1]) [nM]
CN1C(=O)[C@@H](NC(=O)c2n[nH]c(Cc3ccccc3)n2)COc2ccc(C#CC(C)(C)O)cc21 [Compound I-36, (S)-5-benzyl-3-((7-(3-hydroxy-3-methylbut-1-yn-1-yl)-5-methyl-4-oxo-2,3,4,5-tetrahydrobenzo[b][1,4]oxazepin-3-yl)carbamoyl)-1,2,4-triazol-1-ide] | 33.8 | 1.4 | 2.2 | – | –
CN1C(=O)[C@@H](NC(=O)c2ncn(Cc3ccccc3)n2)COc2ccc(C#CCCOc3ccc4ncccc4c3)cc21 [Compound I-37, (S)-1-benzyl-N-(5-methyl-4-oxo-7-(4-(quinolin-6-yloxy)but-1-yn-1-yl)-2,3,4,5-tetrahydrobenzo[b][1,4]oxazepin-3-yl)-1H-1,2,4-triazole-3-carboxamide] | 56.5 | – | – | 0.2 | 1
CN1C(=O)[C@@H](NC(=O)c2n[nH]c(Cc3ccccc3)n2)COc2ccc(C#CCCOc3ccc4ncccc4c3)cc21 [Compound I-38, (S)-5-benzyl-N-(5-methyl-4-oxo-7-(4-(quinolin-6-yloxy)but-1-yn-1-yl)-2,3,4,5-tetrahydrobenzo[b][1,4]oxazepin-3-yl)-1H-1,2,4-triazole-3-carboxamide] | 68 | – | – | 0.5 | 3.6
CN1C(=O)[C@@H](NC(=O)c2n[nH]c(Cc3ccccc3)n2)COc2ccc(CN3CCn4nc(C(F)(F)F)nc4C3)cc21 [Compound I-40, (S)-5-benzyl-N-(5-methyl-4-oxo-7-((2-(trifluoromethyl)-5,6-dihydro-[1,2,4]triazolo[1,5-a]pyrazin-7(8H)-yl)methyl)-2,3,4,5-tetrahydrobenzo[b][1,4]oxazepin-3-yl)-1H-1,2,4-triazole-3-carboxamide] | 88.7 | – | – | 0.3 | 2.3
CN1C(=O)[C@@H](NC(=O)c2n[nH]c(Cc3ccccc3)n2)COc2ccc(C#CCCOc3ccc4cccnc4c3)cc21 [Compound I-41, (S)-5-benzyl-N-(5-methyl-4-oxo-7-(4-(quinolin-7-yloxy)but-1-yn-1-yl)-2,3,4,5-tetrahydrobenzo[b][1,4]oxazepin-3-yl)-1H-1,2,4-triazole-3-carboxamide] | 80 | – | – | 1.6 | 5.2
CN1C(=O)[C@@H](NC(=O)c2n[nH]c(Cc3ccc(F)cc3F)n2)COc2ccc(C#CC(C)(C)O)cc21 [Compound I-43, (S)-5-(2,4-difluorobenzyl)-N-(7-(3-hydroxy-3-methylbut-1-yn-1-yl)-5-methyl-4-oxo-2,3,4,5-tetrahydrobenzo[b][1,4]oxazepin-3-yl)-1H-1,2,4-triazole-3-carboxamide] | 85.4 | – | – | 0.9 | 3.8

More lines, in order of falling IC50 (RIPK1), values ahead:

IC50 (RIPK1) [nM] | Compound | IC50 (L929 cells; L929 cells) [nM] | IC50 (U937 cells; U937 cells) [nM] | IC50 (L929 cells; Mus musculus, L929, L929 cells) [nM] | IC50 (U937 cells; [1]) [nM]
47.7 | CN1C(=O)[C@@H](NC(=O)c2ncn(Cc3ccccc3)n2)COc2ccc(C#CCCOc3ccc4cccnc4c3)cc21 [Compound I-42, (S)-1-benzyl-N-(5-methyl-4-oxo-7-(4-(quinolin-7-yloxy)but-1-yn-1-yl)-2,3,4,5-tetrahydrobenzo[b][1,4]oxazepin-3-yl)-1H-1,2,4-triazole-3-carboxamide] | – | – | 1.2 | 3.3
36.4 | CN1C(=O)[C@@H](NC(=O)c2ncn(Cc3ccccc3)n2)COc2ccc(CN3CCn4nc(C(F)(F)F)nc4C3)cc21 [Compound I-39, (S)-1-benzyl-N-(5-methyl-4-oxo-7-((2-(trifluoromethyl)-5,6-dihydro-[1,2,4]triazolo[1,5-a]pyrazin-7(8H)-yl)methyl)-2,3,4,5-tetrahydrobenzo[b][1,4]oxazepin-3-yl)-1H-1,2,4-triazole-3-carboxamide] | – | – | 0.4 | 2.7
34 | CN1C(=O)[C@@H](NC(=O)c2ncn(Cc3ccccc3)n2)COc2ccc(C#CCCOc3cccc4ncccc34)cc21 [Compound I-44, (S)-1-benzyl-N-(5-methyl-4-oxo-7-(4-(quinolin-5-yloxy)but-1-yn-1-yl)-2,3,4,5-tetrahydrobenzo[b][1,4]oxazepin-3-yl)-1H-1,2,4-triazole-3-carboxamide] | – | – | 0.2 | 1.1
